According to US5968751A, “Method for detecting the presence of protein C antibody in a fluid sample” (The Scripps Research Institute, priority 1997, dated 1999):
No end group written: not given here.

Experiments:
APC [1] = molecular target: T1, APC (Homo sapiens, UniProt P04070); assay: APTT and Xa-1-stage coagulation assays, inhibition of APC anticoagulant activity; format: biochemical; design: Protein C consists of a 155 amino acid residue light chain and a 262 amino acid residue heavy chain; from tissue; host or cells: human plasma factor IX concentrate
Procedure: The effect of the synthetic peptides on APC anticoagulant activity were determined using the APTT assay in the presence of either normal citrate anticoagulated plasma (NHP) or protein S depleted plasma (PSDP). The assays were performed essentially as described. See Marlar et al., Blood, 59:1067-1072 […]; Suzuki et al., J. Biol. Chem., 258:163-168 (1983); Gruber et al., Blood, 73:639-642 (1989); Ohlin et al., Biochem., 29:644-651 (1990). NHP was purchased from George King Bio-Medical, Inc. (Overland Park, Kans.). PSDP was prepared from a normal human citrate-anticoagulated plasma pool from ten healthy donors. Protein S was immunodepleted from the NHP by immunoaffinity chromatography of NHP over an anti-protein S antibody column to form PSDP. The anti-protein S antibody column was prepared by coupling 100 mg of a monoclonal, high-affinity, calcium-independent anti-PS antibody, designated S7, to 30 ml of CNBr-activated Sepharose 4B (Pharmacia) as described in Example 2cl).
For the APTT assay, APC was prepared as described in Example 2c2). […] The concentration of the APC used in the assay was initially optimized with respect to the sensitivity of the assay towards APC-induced prolongation of clotting time compared to clotting time without APC.
Once the optimal concentration of APC was determined, peptides from the heavy and light chains of PC and control scrambled peptides listed below in Example 5a2) in Tables 6 and 7 were then separately admixed for a final concentration of 500 μM with 10 nM APC in 100 μl of TBS-BSA at pH 7.4 to form peptide-APC admixtures. Peptides were prepared as described in Example 1. The resulting admixtures were maintained for ten minutes at 37° C. Separate aliquots of peptides maintained under the same conditions in the absence of APC served as controls for the inhibitory effect of synthetic peptides on APC anticoagulant activity. After the maintenance period, 100 μl of NHP and 100 μl APTT-reagent Thrombosil (Ortho Diagnostics, Raritan, N.J.) were admixed into each peptide admixture and maintained for 200 seconds at 37° C. to form a pre-coagulation admixture. In some experiments, PSDP was used in the place of NHP to determine the effect of Protein S on the assay system. Coagulation was then initiated by the admixture of 100 μl of 30 mM CaCl2 in TBS prewarmed to 37° C. to each of the pre-coagulation admixtures. The time for clot formation was measured by an Electra 700 Automatic Coagulation Timer (Medical Laboratory Automation, Inc., Mount Vernon, N.Y.). Each peptide's effect was determined in duplicate.
For peptides at a concentration of 500 μM that inhibited at least 50% of APC anticoagulant activity, analysis of dose-response was subsequently conducted.
For testing the inhibition of the synthetic peptides on APC activity described above, Xa-1-stage coagulation assays were also performed as described. See Seegers et al., Thrombosis Res., 13:233-243 (1978); Marlar et al., supra; and Walker et al., J. Biol. Chem., 265:1484-1489 (1990).
Target sequence in this assay (P04070 43-197 limits assumed): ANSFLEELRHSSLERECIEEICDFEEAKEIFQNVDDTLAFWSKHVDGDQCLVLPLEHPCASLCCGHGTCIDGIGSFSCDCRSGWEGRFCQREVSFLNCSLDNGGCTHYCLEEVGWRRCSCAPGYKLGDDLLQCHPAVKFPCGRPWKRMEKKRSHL
Target sequence in this assay (P04070 212-450 limits assumed): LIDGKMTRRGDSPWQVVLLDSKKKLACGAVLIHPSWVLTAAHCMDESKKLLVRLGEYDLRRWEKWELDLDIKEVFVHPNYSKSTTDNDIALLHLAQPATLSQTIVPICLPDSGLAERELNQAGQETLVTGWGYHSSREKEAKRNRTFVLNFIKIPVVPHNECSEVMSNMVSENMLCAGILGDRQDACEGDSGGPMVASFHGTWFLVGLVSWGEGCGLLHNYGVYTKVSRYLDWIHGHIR

APC [2] = molecular target: T1, APC; assay: inhibition of APC by recombinant mutant (Arg358)-α1-antitrypsin, time course; format: biochemical; design: Protein C consists of a 155 amino acid residue light chain and a 262 amino acid residue heavy chain; from tissue; alpha1-AT mutant from Transgene, Strasbourg; conditions: 250 μM PC311-325, 500 μM PC142-155; 18 nM APC, 100 nM α1-AT
Procedure: Kinetic studies of inhibition of APC were performed with the higher affinity mutant α1 -AT pseudo-substrate. For the assay, 60 μl of 36 nM APC and/or 60 μl of 200 nM recombinant (Arg^358)-α1 -AT prepared in TBS-BSA at pH 7.4 containing 0.02% NaN3 and 2 mM CaCl2 were separately admixed with 500 μM PC311-325 or 1 mM PC142-155 and maintained for 30 minutes at 37° C. to form APC-peptide and/or α1 -AT-peptide admixtures for each peptide tested, respectively. Thereafter, the peptide-treated APC and α1 -AT admixtures were combined to form a reaction admixture. At selected time points, 8 μl aliquots from the reaction admixture were removed and admixed with 300 μl 0.8 mM S-2366 in TBS-BSA at pH 8.0 containing 0.02% NaN3 to initiate the hydrolysis of S-2366 by APC. The change in absorbance was measured over time as described in the amidolytic assay. […]
Since the number of amino acid residues involved in neutralization of APC by macromolecular plasma protease inhibitors is likely to be higher than the number of residues of APC involved in the cleavage of a small chromogenic substrate such as S-2366, the effect of anti-PC317-331 antibody on the time course of inhibition of APC by a larger pseudo-substrate, such as recombinant mutant (Arg^358)-α1 -AT was evaluated. […] The change in absorbance was measured over time as described in the amidolytic assay. […]
Target sequence in this assay (P04070 43-197): as the sequence (P04070 43-197 limits assumed) above
Target sequence in this assay (P04070 212-461): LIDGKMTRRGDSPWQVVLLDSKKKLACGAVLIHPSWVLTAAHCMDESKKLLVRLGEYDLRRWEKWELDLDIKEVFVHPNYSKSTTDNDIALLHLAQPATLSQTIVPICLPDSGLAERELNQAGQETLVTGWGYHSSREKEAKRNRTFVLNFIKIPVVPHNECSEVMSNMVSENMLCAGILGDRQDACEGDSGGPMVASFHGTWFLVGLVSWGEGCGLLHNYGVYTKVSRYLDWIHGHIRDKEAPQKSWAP

[3] = mean values of APTT and Xa-1 stage assays, NHP, control peptide at 500 μM (±10%)

IC50 (concentration of peptide that inhibits 50% of APC anticoagulant activity) (APC [1]; [3]) | IC90 ** μM (concentration of peptide that inhibits 90% of APC anticoagulant activity) (APC [1]; [3]) | effect on APC anticoagulant activity (APC [1]; various concentrations up to 500 μM peptide) | Substance | 90% inhibition of APC anticoagulant activity (APC [1]; APTT and Xa-1-stage assays in NHP and PSDP) | IC50 (APC [1]; APTT and Xa-1-stage assays in NHP and PSDP, read-out: 50% inhibition of APC anticoagulant activity) [µM] | effect on the time course of inhibition of APC by recombinant (Arg358)α1-AT (APC [2])
 |  |  | KRNRTFVLNFIKIPV-NH2 [PC311-325, Lys-Arg-Asn-Arg-Thr-Phe-Val-Leu-Asn-Phe-Ile-Lys-Ile-Pro-Val] | approximately 50 μM | 7 to 20 | did not have any significant effect
no effect | no effect | no significant effect | VKFTIRVFNPRNLKI [Control Peptide, reference compound] |  |  | 
